# From the supplement of paper PMC10307832
# Experiments:
# Test in all cases: relative viability (nuclei count vs DMSO), 5 days (fraction); higher = more cells survive
# Ponatinib = compound: Cc1ccc(C(=O)Nc2ccc(CN3CCN(C)CC3)c(C(F)(F)F)c2)cc1C#Cc1cnc2cccnn12 [Ponatinib]
# In short: (§1)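 Following overnight incubation at 37 °C, lung cancer cell lines in 1536-well plates were pinned with five library-drug doses (not always all listed) in √10 steps on vehicle-anchored plates. The cells then spent 5 days without medium change before a combined fix, permeabilisation and Hoechst stain, 4× imaging and MetaXpress nuclear counts. Viability is the treated-to-vehicle ratio of nuclei, taken as the median across plates. Only plates with control CV below 25% and at least one doubling passed.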
# Pazopanib = compound: Cc1ccc(Nc2nccc(N(C)c3ccc4c(C)n(C)nc4c3)n2)cc1S(N)(=O)=O [Pazopanib]
# In short: as §1
# Ponatinib + OSI-027 = compound: Cc1ccc(C(=O)Nc2ccc(CN3CCN(C)CC3)c(C(F)(F)F)c2)cc1C#Cc1cnc2cccnn12 [Ponatinib] + COc1cccc2cc(-c3nc([C@H]4CC[C@H](C(=O)O)CC4)n4ncnc(N)c34)[nH]c12 [OSI-027] (partner 0.5 µM)
# In short: (§2)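 Lung cancer cell lines were seeded in 1536-well plates and dosed by pin tool the next day, with either a single drug or a fixed anchor-drug dose combined with five library-drug doses (not always all listed) spaced in √10 steps. Five days later, one step fixed the cells and stained their nuclei (final 0.05% Triton X-100, 1% formaldehyde, 1 ug/ml Hoechst), and nuclei were counted on 4× images. Relative viability is the nuclei count in treated wells divided by the count in vehicle wells, and each value is the median of duplicate plates.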
# Pazopanib + Pemetrexed = compound: Cc1ccc(Nc2nccc(N(C)c3ccc4c(C)n(C)nc4c3)n2)cc1S(N)(=O)=O [Pazopanib] + Nc1nc2[nH]cc(CCc3ccc(C(=O)N[C@@H](CCC(=O)O)C(=O)O)cc3)c2c(=O)[nH]1 [Pemetrexed] (partner 0.2 µM)
# In short: as §2
Cell Line,relative viability (Ponatinib; 0.002 µM),relative viability (Ponatinib; 0.006325 µM),relative viability (Ponatinib; 0.06325 µM),relative viability (Ponatinib; 0.2 µM),relative viability (Pazopanib; 0.01 µM),relative viability (Pazopanib; 0.03162 µM),relative viability (Pazopanib; 0.1 µM),relative viability (Pazopanib; 0.3162 µM),relative viability (Pazopanib; 1 µM),relative viability (Ponatinib + OSI-027; first compound 0.002 µM),relative viability (Ponatinib + OSI-027; first compound 0.006325 µM),relative viability (Ponatinib + OSI-027; first compound 0.06325 µM),relative viability (Ponatinib + OSI-027; first compound 0.2 µM),relative viability (Pazopanib + Pemetrexed; first compound 0.01 µM),relative viability (Pazopanib + Pemetrexed; first compound 0.03162 µM),relative viability (Pazopanib + Pemetrexed; first compound 0.1 µM),relative viability (Pazopanib + Pemetrexed; first compound 0.3162 µM),relative viability (Pazopanib + Pemetrexed; first compound 1 µM)
NCI-H520,0.774,0.921,0.832,0.628,0.858,1.01,1.01,1.1,1.11,0.273,0.244,0.203,0.2,0.642,0.728,0.768,0.755,0.602
NCI-H522,0.816,1,0.818,0.847,0.723,0.978,0.864,0.983,1.12,0.641,0.683,0.65,0.578,0.842,0.83,0.956,1.09,1.02
NCI-H596,0.906,0.924,0.875,0.785,0.815,1.05,0.959,0.904,1.05,0.653,0.619,0.516,0.392,0.472,0.494,0.478,0.522,0.528
NCI-H647,0.818,1.05,1.09,0.769,0.885,1.08,0.895,0.956,1.13,0.565,0.716,0.69,0.502,0.174,0.159,0.164,0.153,0.177
NCI-H650,0.791,0.848,0.858,0.896,0.801,0.982,0.916,0.948,0.946,0.378,0.49,0.456,0.466,0.871,0.922,0.863,0.884,0.798
NCI-H661,0.98,0.942,0.985,0.99,0.939,0.958,1.03,1,0.986,0.669,0.707,0.763,0.666,0.863,0.938,0.969,0.955,0.861
NCI-H838,0.95,1.01,0.994,0.793,0.918,1.01,0.996,1.05,1.14,0.416,0.416,0.482,0.349,0.272,0.231,0.265,0.252,0.227
NCI-H1355,0.923,1.02,1.11,1,0.753,0.952,0.95,1,1.06,0.409,0.48,0.43,0.385,0.84,1.02,1.1,1.02,1.08
NCI-H1395,0.675,0.934,0.91,0.708,0.848,1.03,0.825,1.1,1.2,0.519,0.57,0.558,0.505,0.744,0.83,0.886,0.938,0.932
NCI-H1437,0.945,0.983,1.01,0.926,1,0.972,0.971,0.976,1.06,0.809,0.864,1.01,0.75,0.327,0.333,0.328,0.296,0.321
NCI-H1563,0.935,0.959,0.99,0.815,0.85,0.997,1.02,0.996,1.07,0.764,0.711,0.687,0.692,0.707,0.805,0.691,0.876,0.81
NCI-H1648,0.862,0.836,0.671,0.799,0.582,0.869,0.842,0.903,0.837,0.249,0.299,0.261,0.282,–,–,0.662,0.77,0.742
NCI-H1650,0.915,1.05,1.22,0.891,1.05,1.02,0.954,1.12,1.16,0.611,0.66,0.748,0.568,0.34,0.376,0.364,0.403,0.369
NCI-H1651,0.982,1.02,1.08,0.929,0.917,1,1.01,0.956,1.01,0.639,0.638,0.825,0.66,0.6,0.603,0.574,0.542,0.583
NCI-H1666,0.919,0.977,1.11,1.04,0.989,1,1.01,0.976,1.07,0.727,0.762,0.872,0.79,0.932,0.834,0.92,0.72,0.847
NCI-H1734,0.938,0.974,1,0.871,0.776,1.03,1.11,1.13,1.12,0.58,0.589,0.521,0.449,0.435,0.396,0.468,0.436,0.432
NCI-H1755,1.02,0.964,0.99,0.892,0.892,0.967,0.947,0.978,1.02,0.652,0.694,0.707,0.595,0.438,0.427,0.458,0.456,0.42
NCI-H1792,0.887,0.836,1.12,0.838,–,0.911,0.832,1.12,0.956,0.621,0.747,0.841,0.586,–,0.943,0.742,0.781,0.79

Cell Line,relative viability (Ponatinib; 0.002 µM),relative viability (Ponatinib; 0.006325 µM),relative viability (Ponatinib; 0.06325 µM),relative viability (Ponatinib; 0.2 µM),relative viability (Pazopanib; 0.01 µM),relative viability (Pazopanib; 0.03162 µM),relative viability (Pazopanib; 0.1 µM),relative viability (Pazopanib; 0.3162 µM),relative viability (Pazopanib; 1 µM),relative viability (Ponatinib + OSI-027; first compound 0.002 µM),relative viability (Ponatinib + OSI-027; first compound 0.006325 µM),relative viability (Ponatinib + OSI-027; first compound 0.06325 µM),relative viability (Ponatinib + OSI-027; first compound 0.2 µM),relative viability (Pazopanib + Pemetrexed; first compound 0.01 µM),relative viability (Pazopanib + Pemetrexed; first compound 0.03162 µM),relative viability (Pazopanib + Pemetrexed; first compound 0.1 µM),relative viability (Pazopanib + Pemetrexed; first compound 0.3162 µM),relative viability (Pazopanib + Pemetrexed; first compound 1 µM)
NCI-H1793,0.959,0.914,0.89,0.715,–,0.875,0.856,0.961,1.16,0.281,0.256,0.273,0.175,–,0.864,0.949,0.76,1.09
NCI-H1915,0.906,1,0.986,0.971,0.915,1.02,0.995,0.961,0.894,0.546,0.651,0.639,0.56,0.509,0.442,0.472,0.467,0.474
NCI-H1944,0.828,1.01,0.957,1,0.739,0.965,1.06,0.981,1.01,0.387,0.43,0.44,0.394,0.562,0.635,0.67,0.724,0.603
NCI-H1975,0.831,0.918,0.948,0.844,0.889,0.895,0.993,0.944,1.03,0.602,0.575,0.47,0.503,0.294,0.296,0.285,0.299,0.258
NCI-H1993,1.02,1.03,1.2,1.05,–,0.791,0.936,0.983,0.86,0.516,0.495,0.469,0.567,–,0.588,0.639,0.549,0.554
NCI-H2009,0.95,0.944,1.07,1.03,0.989,1.04,0.937,1.02,0.891,0.486,0.496,0.759,0.545,1.06,1.06,0.977,0.971,0.925
NCI-H2023,0.821,0.95,1.1,0.846,0.856,1,0.989,0.974,1.22,0.347,0.379,0.399,0.267,0.18,0.206,0.271,0.22,0.216
NCI-H2085,1.01,0.997,1.19,1.06,0.973,1.04,0.966,1.01,1.02,0.624,0.704,0.753,0.727,0.816,1.09,0.804,0.949,1.03
NCI-H2087,0.877,0.782,0.928,0.974,1.02,1.06,1.07,1.09,0.908,0.667,0.525,0.593,0.563,0.61,0.65,0.637,0.59,0.657
NCI-H2126,0.959,1.04,1.14,1.04,0.91,0.903,1.02,0.991,0.996,0.779,0.818,0.845,0.563,0.662,0.703,0.68,0.693,0.721
NCI-H2170,0.927,0.969,1,0.917,0.828,1.02,0.948,0.899,0.995,0.698,0.724,0.749,0.694,0.258,0.307,0.264,0.277,0.258
NCI-H2228,0.828,0.991,1.07,0.895,0.964,1,1.03,0.973,1.04,0.474,0.431,0.705,0.376,0.366,0.337,0.296,0.348,0.333
NCI-H2342,0.958,0.946,1.01,0.999,0.687,0.945,0.957,0.883,0.852,0.557,0.602,0.53,0.637,0.599,0.756,0.842,0.75,0.655
NCI-H2347,0.977,1,1.19,0.977,0.932,1,0.98,1.05,1.04,0.373,0.421,0.371,0.239,0.444,0.421,0.429,0.426,0.386
NCI-H2405,0.935,1.06,1.02,0.847,0.895,0.998,1.01,1.04,1.1,0.613,0.642,0.605,0.631,0.97,1.11,1.17,1.14,1.41
NCI-H3122,0.979,0.997,1.02,1.02,1.04,0.997,1.01,1.06,1.05,1,0.988,1.02,0.834,0.207,0.188,0.188,0.191,0.212
PC-3 [JPC-3],0.932,1.05,1.15,1.03,1.13,1.05,1.09,1.02,1.01,0.745,0.76,0.754,0.69,–,0.993,0.957,1.06,1.15
